Our source for the Km values is PMC10511417, “Salmonid polysialyltransferases to generate a variety of sialic acid polymers” (Scientific Reports, 2023).

The structures appear in SMILES notation.

The subject of the assay is T1, CmaST8Sia IV (CmaΔ28ST8Sia IV; fish ST8Sia IV).
T1 construct: gene st8sia4; soluble Δ28 form lacking the first 28 residues (cytoplasmic tail and transmembrane domain), N-terminal 3xFLAG (p3×FLAG-CMV9), secreted by HEK293 cells; crude culture medium; ~52 kDa N-glycosylated; cDNA cloned from C. maraena with 1074 bp amplicon; printed XM_041897387 is Coregonus clupeaformis homologue
The experiment in a line: MicroPlate Sialyltransferase Assay (click biotinylation, anti-biotin-HRP), Michaelis-Menten fit. Format: biochemical, Coregonus maraena. The note with it: acceptor CD166/ALCAM 400 ng; cacodylate buffer pH 6.4, 27 °C, 4 h; 0-100 µM donor; crude culture medium as enzyme; read-out: apparent Km.

Consider `C#CCCC(=O)N[C@H]1[C@H]([C@H](O)[C@H](O)CO)OC(OP(=O)(O)OC[C@H]2O[C@@H](n3ccc(N)nc3=O)[C@H](O)[C@@H]2O)(C(=O)O)C[C@@H]1O` (stereo partly shown) [CMP-SiaNAl], for which the Km was determined as 17.6 ± 2.52 µM.
